Values of other authors as cited in US12168054B2 (SYNDAX PHARMACEUTICALS, INC., priority 2017, dated 2024).

Key:
[1] = in vivo
histone acetylation = conditions: following the administration of entinostat

half-life [1]: about 100 hours
Structure (SMILES): Nc1ccccc1NC(=O)c1ccc(CNC(=O)OCc2cccnc2)cc1 [Entinostat, N-(2-aminophenyl)-4-[N-(pyridine-3-yl)methoxycarbonylamino-methyl]-benzamide]
persistence of changes in histone acetylation following administration (histone acetylation): persist for several weeks
